In patent US8871919B2, “RNAi therapeutic for treatment of Hepatitis C infection” (Florida State University Research Foundation, priority 2007, dated 2014):
“Also recorded” adds a separate entry of the source.

How the values were obtained:
GS5 replicon cells [1] = experiment: NS5A expression in GS5 replicon cells (Western blot); format: cell-based, Hepatitis C virus; conditions: for NS5A expression: GS5 cells
CyPA [2] = experiment: CyPA expression in GS5 cells (Western blot); format: cell-based, human
Protocol: (§1) A human immunodeficiency virus (HIV)-based lentiviral vector is used to express all of the short hairpin RNAs (shRNAs). […] Target or sense sequences for the other shRNAs are as follows:
(§2) The above sequences may be converted to RNA sequences by changing each thymine (T) to uracil (U). Lentiviral vector production and transduction are performed as described previously (44). Stable cells expressing shRNAs are obtained by selection with 1 μg/ml of puromycin (MP Biomedicals, Solon, Ohio) for 3 weeks.

RS2 replicon cells [3] = experiment: NS5A expression in CsA-resistant RS2 replicon cells (Western blot); format: cell-based, Hepatitis C virus; conditions: lentiviral shRNA, 7 days
[4] = tested on: H77 (GT 1a) replicon cells; experiment: NS5A expression in H77 (GT 1a) replicon cells, transient transduction; format: cell-based, Hepatitis C virus; conditions: transient transduction (FIG. 4D)
Text: (§3) FIG. 4D is an image of Western blots showing expression of the proteins NS5A, CyPB, and CyPA in H77 (GT 1a) and Con1 (GT 1b) replicon cells transduced with the indicated shRNAs (sh-Luc or sh-A161);

HCVcc/JFH-1 = HCVcc/JFH-1 infection of Huh-7.5 cells; format: cell-based, Hepatitis C virus
Text: FIG. 5A is an image of an RNA gel showing HCV IRES RNA levels relative to cellular RNA helicase A (RHA) RNA in total RNA extracts from Huh7.5 cells transduced with several shRNAs (sh-Luc, sh-A159, or sh-B710) following infection with HCVcc/JFH-1 for nine days;
FIG. 5B is a fluorescence microscopy image showing anticore antibody and DAPI (4′,6′-diamidino-2-phenylindole) staining of paraformaldehyde fixed Huh7.5 cells transduced with either sh-Luc or sh-A159 following infection with HCVcc/JFH-1 for nine days;
FIG. 5C is an image of Western blots showing expression of the proteins NS3, GAPDH, and CyPA in total protein extracts from Huh7.5 cells transduced with the indicated shRNAs (sh-Luc or sh-A159) at 0, 9, or 12 days after infection with HCVcc/JFH-1 replicons; […]
Full-length JFH-1 cDNA is provided by Takaji Wakita. Production of infectious HCVcc and infection of Huh-7.5 cells are performed as described previously (See, e.g., Zhong, J. et al., “Robust hepatitis C virus infection in vitro,” Proc. Natl. Acad. Sci. USA, 102:9294-9299 (2005)). Western blotting and immunostaining of infected cells are carried out according to standard methods.

RS2 replicon cells [5] = experiment: Colony formation assay, puromycin and G418 double selection, RS2 cells; format: cell-based, Hepatitis C virus
[6] = tested on: GT 1a (H77) subgenomic replicon; experiment: Colony formation in stable Huh-7.5 cells electroporated with GT 1a (H77) replicon RNA; format: cell-based, Hepatitis C virus; conditions: stable Huh-7.5 cells (FIG. 4C)
Text: (§4) FIG. 4C is an image of plates containing stained Huh-7.5 cells transduced with several shRNAs (sh-Luc, sh-A159, sh-B710, or sh-C454) after four weeks following electroporation with one microgram of either H77 (GT 1a) or Con1 (GT 1b) replicons;
(§5) GS5 and RS2 cells contain GT 1b replicons with the GFP gene inserted into the NS5A region. (See, e.g., Moradpour, D. et al., “Insertion of green fluorescent protein into nonstructural protein 5A allows direct visualization of functional hepatitis C virus replication complexes,” J. Virol. 78:7400-7409 (2004); Nelson, H. B. et al., “Effect of cell growth on hepatitis C virus (HCV) replication and a mechanism of cell confluence-based inhibition of HCV RNA and protein expression,” J. Virol. 80:1181-1190 (2006)). Next the effect of CyPA knock-down on replicons without GFP is examined. Both GT 1a and 1b replicons are tested. To this end, stable Huh-7.5 cell lines are established that express the various shRNAs and then challenges them, by electroporation, with in vitro-transcribed GT 1a (H77) and 1b (Con1) subgenomic replicon RNAs. The shRNAs effectively silence the expression of their respective targets in the stable cells as expected (FIGS. 4A and 4B). No defect in morphology or growth rate is detected for any of the stable cell lines, confirming that these CyPs are dispensable for cell survival in vitro.

[7] = tested on: GT 1b (Con1) subgenomic replicon; experiment: Colony formation in stable Huh-7.5 cells electroporated with GT 1b (Con1) replicon RNA; format: cell-based, Hepatitis C virus; conditions: stable Huh-7.5 cells (FIG. 4C)
Text: as §4, §5

RS2 replicon cells [8] = experiment: NS5A-GFP expression in RS2 cells by FACS; format: cell-based, Hepatitis C virus
Text: In contrast to the GS5 replicon, RS2 replicates efficiently in the presence of substantial CyPA knock-down (FIG. 1D).

GS5 replicon cells [9] = experiment: Colony formation assay, puromycin and G418 double selection, GS5 cells; format: cell-based, Hepatitis C virus
[10] = tested on: vesicular stomatitis virus; format: cell-based; conditions: sh-A159 Huh-7.5 cells (FIG. 5D)
CyPA [11] = experiment: CyPA expression in RS2 cells (Western blot); format: cell-based, human; conditions: RS2 cells stably expressing shRNA (FIG. 3B)
Protocol: as §1, §2

[12] = tested on: Con1 (GT 1b) replicon cells; experiment: NS5A expression in Con1 (GT 1b) replicon cells, transient transduction; format: cell-based, Hepatitis C virus; conditions: transient transduction (FIG. 4D)
Text: as §3

Rep1b RNA = conditions: day 4 vs 7 hours after electroporation (FIG. 2E)
Protocol: A parallel electroporation of Rep1b RNA into Huh-7.5/sh-Luc cells serves as a positive control, which is set at 100%;
One microgram of replicon RNA is mixed with 9 μg of a pcDNA3.1-based plasmid containing no insert, CyPA cDNA, CyPB cDNA, or CyPC cDNA and used in a standard electroporation (36). RNA is extracted 7 h and 4 days post-electroporation and subjected to quantitative RT-PCR analysis to detect HCV RNA as described previously (See, e.g., Robida, J. M et al., Characterization of hepatitis C virus subgenomic replicon resistance to cyclosporine in vitro, J. Virol., 81:5829-5840 (2007). All the CyP cDNAs are tagged with a Myc epitope at the C terminus, and the CyPA cDNA containing silent mutations in the sh-A159 recognition site is designated CyPA#.

HCV = conditions: cited from earlier work
[13] = synthesized siRNA duplex, transient transfection (FIG. 2C)

Substance: si-A159: synthesized siRNA duplex form of sh-A159 (sense SEQ ID NO: 2, antisense SEQ ID NO: 4) (sense AAGGGUUCCUGCUUUCACAGA; antisense UCUGUGAAAGCAGGAACCCUU; listed as RNA, chemistry not given here)
- NS5A expression (GS5 replicon cells [1]; [13]): inhibited
- CyPA expression (CyPA [2]; [13]): inhibited; also recorded: no more potent than si-A285

Substance: sh-C454: shRNA directed at CyPC, nucleotides 454-474 of human CyPC cDNA (SEQ ID NO: 10) (AAGACTGAAGGTGTGCTGGTA) [reference compound]
- NS5A expression (GS5 replicon cells [1]; lentiviral shRNA, 7 days): no effect
- NS5A expression (RS2 replicon cells [3]): no effect

Substance: sh-A159: shRNA against CyPA; sense sequence nucleotides 159 through 179 of human CyPA cDNA, hairpin UUCAAGAGA (SEQ ID NO: 3) (AAGGGUUCCUGCUUUCACAGAUUCAAGAGAUCUGUGAAAGCAGGAACCCUU)
- NS5A expression [4]: inhibitory effect
- NS5A expression (GS5 replicon cells [1]; lentiviral shRNA, 7 days): inhibits NS5A expression; also recorded: most effective
- NS5A expression with sh-A159-insensitive CyPA cDNA (Myc-A#) (GS5 replicon cells [1]; replicon cells, sh-A159 together with Myc-A# (FIG. 2D)): partially rescued
- HCV infection of stable shRNA cells (HCVcc/JFH-1; Huh-7.5, HCVcc/JFH-1, RT-PCR, core staining, NS3 Western blot): highly refractory to infection
- viral replication (NS3 expression) in an existing infection (HCVcc/JFH-1; Huh-7.5 infected with JFH-1 for 10 days, then transduced, NS3 measured 7 days after transduction): suppresses viral replication
- number of double-resistant colonies (RS2 replicon cells [5]): not observed
- ability of replicon RNA to form colonies [6]: completely inhibits
- ability of replicon RNA to form colonies [7]: completely inhibits
- suppression of NS5A-GFP expressing RS2 cells (RS2 replicon cells [8]; no selection, 0.5 μg/ml CsA, FACS (FIG. 3C)): no significant suppression
- sensitivity of RS2 replicon to CsA relative to RS2/sh-Luc (RS2 replicon cells [8]; stable RS2 cells, CsA 4 days, FACS (FIG. 3A)): six to eight times more sensitive
- number of double-resistant colonies (GS5 replicon cells [9]): significantly lower number
- CyPA expression (CyPA [2]; lentiviral shRNA, 7 days (FIG. 2B)): knock down CyPA expression; also recorded: most effective
- susceptibility to infection by vesicular stomatitis virus [10]: fully susceptible
- CyPA expression (CyPA [11]): substantial suppression
- NS5A expression [12]: inhibitory effect
- HCV RNA replication with sh-A159-insensitive CyPA cDNA (Myc-A#) (Rep1b RNA): partially rescued

Substance: alpha-interferon and ribavirin
- sustained efficacy, share of patients (HCV): 40%
